The source of these data is patent publication US5591742A, “Pyridopyrimidinone antianginal agents” (Pfizer Inc., priority 1992, dated 1997).

Series [1] concerns the target T1, calcium/calmodulin (Ca/CAM)-independent cGMP PDE (Oryctolagus cuniculus, UniProt G1SX67).
T1 construct: The PDE enzymes are isolated from rabbit platelets and rat kidney; from tissue; host or cells: rabbit platelets
The series is described as follows: PDE inhibition: Ca/CAM-independent cGMP PDE from rabbit platelets. Type of series: biochemical. As to conditions: Ca/CAM-independent cGMP PDE, rabbit platelets, in vitro. As for the experimental part:
(§1) Phosphodiesterase activity
(§2) Compound affinities for cGMP and cAMP PDEs are assessed by determination of their IC50 values (the concentration of inhibitor required for 50% inhibition of enzyme activity). The PDE enzymes are isolated from rabbit platelets and rat kidney, essentially by the method of W. J. Thompson et al. (Biochem., 1971, 10, 311). The calcium/calmodulin (Ca/CAM)--independent cGMP PDE and the cGMP-inhibited cAMP PDE enzymes are obtained from rabbit platelets whilst, of the four major PDE enzymes of the rat kidney, the Ca/CAM-dependent cGMP PDE (fraction I) is isolated. Assays are performed using a modification of the "batch" method of W. J. Thompson and M. M. Appleman (Biochem., 1979, 18, 5228).

Series [2] deals with calcium/calmodulin (Ca/CAM)-independent cGMP PDE. The description is as above. In kind it is biochemical. As to conditions: IC50 cGMP-inhibited cAMP PDE / IC50 Ca/CAM-independent cGMP PDE. On the procedure:
as §1, §2

The target in series [3] is T2, cGMP-inhibited cAMP PDE (Oryctolagus cuniculus, UniProt G1ST54).
T2 construct: from tissue; host or cells: rabbit platelets
T2 sequence (G1ST54 1-1128): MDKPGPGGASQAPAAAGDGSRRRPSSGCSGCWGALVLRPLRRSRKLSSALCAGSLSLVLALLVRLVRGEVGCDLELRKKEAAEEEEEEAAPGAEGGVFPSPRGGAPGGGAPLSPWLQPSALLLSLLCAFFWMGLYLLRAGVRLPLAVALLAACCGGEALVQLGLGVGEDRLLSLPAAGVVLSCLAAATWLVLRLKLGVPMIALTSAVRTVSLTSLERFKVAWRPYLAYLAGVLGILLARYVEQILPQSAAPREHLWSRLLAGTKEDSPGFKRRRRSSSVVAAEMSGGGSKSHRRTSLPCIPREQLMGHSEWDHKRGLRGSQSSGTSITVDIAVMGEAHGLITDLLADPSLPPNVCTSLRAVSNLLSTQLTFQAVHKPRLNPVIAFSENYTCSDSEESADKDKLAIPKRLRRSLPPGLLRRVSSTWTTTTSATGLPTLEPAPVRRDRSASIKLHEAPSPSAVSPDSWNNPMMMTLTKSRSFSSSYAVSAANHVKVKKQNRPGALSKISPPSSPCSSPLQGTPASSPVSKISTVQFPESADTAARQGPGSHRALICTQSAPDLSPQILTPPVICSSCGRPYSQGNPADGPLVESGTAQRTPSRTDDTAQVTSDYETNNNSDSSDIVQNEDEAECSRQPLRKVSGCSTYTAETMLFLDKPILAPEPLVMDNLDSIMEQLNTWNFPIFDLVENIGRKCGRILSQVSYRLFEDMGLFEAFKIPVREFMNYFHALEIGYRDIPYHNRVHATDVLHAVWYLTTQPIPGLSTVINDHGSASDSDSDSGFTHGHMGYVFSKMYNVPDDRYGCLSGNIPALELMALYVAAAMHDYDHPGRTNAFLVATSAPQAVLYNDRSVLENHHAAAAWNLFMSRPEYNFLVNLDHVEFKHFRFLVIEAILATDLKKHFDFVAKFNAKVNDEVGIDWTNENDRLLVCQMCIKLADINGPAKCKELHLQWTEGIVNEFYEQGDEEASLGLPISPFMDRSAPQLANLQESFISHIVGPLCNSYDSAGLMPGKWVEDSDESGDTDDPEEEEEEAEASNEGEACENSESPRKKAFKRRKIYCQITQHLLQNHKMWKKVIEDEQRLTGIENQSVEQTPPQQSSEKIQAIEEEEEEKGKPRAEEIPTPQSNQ
Description: PDE inhibition: cGMP-inhibited cAMP PDE from rabbit platelets. Type of series: biochemical. As to conditions: in vitro. On the procedure: as §1, §2

The nature of series [4]: Safety profile in rabbit (i.v. or i.d.). Type of series: in vivo.

Usually pIC50 stands for the IC50 on a negative log10 scale, so that one unit is a factor of ten.

pIC50: −log10 of the molar value. Where only a bound is given, the exact number is not on record here.

Consider `CCCc1ccnc2c(=O)[nH]c(-c3cc(S(=O)(=O)NCCN4CCOCC4)ccc3OCC)nc12` [Example 1, 2-[2-Ethoxy-5-(2-morpholinoethylsulphamoyl)phenyl]-8-n-propylprido [3,2,d]pyrimidin-4 (3H) -one], for which the figures for the pIC50 in series [1] and in series [3] were 7.68 and 4.72, respectively. Moreover, the “SELECTIVITY RATIO” value in series [2] was 904. Moreover, the untoward effects entry in series [4] (doses up to 3 mg/kg i.d.) is “no untoward effects being observed”.
Take `CCCc1ccnc2c(=O)[nH]c(-c3cc(S(=O)(=O)N4CCN(C)CC4)ccc3OCC)nc12` [Example 2, 2-[2-Ethoxy-5(4-methyl-l-piperazinylsulphonyl)phenyl]-8-n-propylrido [3,2-d]pyrimidin-4(3H)-one]: the pIC50 in series [1] was 7.59; in series [3], 4.89. Further, in series [2], the “SELECTIVITY RATIO” value was 500.
On to `CCCc1ccnc2c(=O)[nH]c(-c3cc(S(=O)(=O)N4CCNCC4)ccc3OCC)nc12` [Example 3, 2-[2-Ethoxy-5-(1-piperazinylsulphonyl]phenyl]-8-n-propylprido [3,2-d]pyrimidin-4(3H) -one], for which the untoward effects entry in series [4] (doses up to 10 mg/kg i.d.) is reported as “no untoward effects being observed”.
For `CCCc1ccnc2c(=O)[nH]c(-c3cc(S(=O)(=O)N4CCC(C(=O)OCC)CC4)ccc3OCC)nc12` [Example 4, 2-[2-Ethoxy-5-(4-ethoxycarbonylpiperidinosulphonyl)-phenyl]-8-n-propylprido[3,2-d]pyrimidin-4(3H) -one], the pIC50 is 8.25 in series [1] and 5.12 in series [3]. In series [2], the “SELECTIVITY RATIO” value is reported as 1,357.
`CCCc1ccnc2c(=O)[nH]c(-c3cc(S(=O)(=O)N(C)CCC(=O)OCC)ccc3OCC)nc12` [Example 5, 2-[2 -Ethoxy-5-(N-2-ethoxycarbonylethyl-N-methyl-sulphamoyl)phenyl]-8-n-propylpyrido[3,2-d]pyrimidin-4(3H)-one]: the pIC50 is 7.85 in series [1] and 5.08 in series [3]. Moreover, the “SELECTIVITY RATIO” value in series [2] is recorded as 592.
With `CCCc1ccnc2c(=O)[nH]c(-c3cc(S(=O)(=O)N4CCN(CCO)CC4)ccc3OCC)nc12` [Example 7, 2-{2-Ethoxy-5-[4-(2-hydroxyethyl)-1-piperazinyl-sulphony]phenyl}-8-n-propylprido[3.2-d]pyrimidin-4(3H)-one], the pIC50 in series [1] was 8.01; in series [3], 4.96. Further, the “SELECTIVITY RATIO” value in series [2] is given as 1,122. Besides, the untoward effects entry in series [4] (doses up to 0.1 mg/kg i.v.) was “no untoward effects being observed”.
`CCCc1ccnc2c(=O)[nH]c(-c3cc(S(=O)(=O)NCCN4CCNC4=O)ccc3OCC)nc12` [Example 8, 2-{2-Ethoxy-5-[2-(1-imidazolidin-2-onyl)ethyl-sulphamoyl]phenyl}-8-n-propylprido[3,2-d]pryimidin-4 (3H)-one]: the untoward effects entry in series [4] (doses up to 3 mg/kg i.d.) is recorded as “no untoward effects being observed”.
Take `CCCc1ccnc2c(=O)[nH]c(-c3cc(S(=O)(=O)N4CCC(C(=O)O)CC4)ccc3OCC)nc12` [Example 9, 2-[5-(4-Carboxypiperidinosulphonyl)-2-ethoxyphenyl]-8-n-propylprido [3,2-d]pyrimidin-4(3H)-one]: the pIC50 is 8.92 in series [1] and 6.66 in series [3]. Besides, the “SELECTIVITY RATIO” value in series [2] turned out to be 183. Besides, the untoward effects result in series [4] (doses up to 1 mg/kg i.v.) is recorded as “no untoward effects being observed”.
`CCCc1ccnc2c(=O)[nH]c(-c3cc(NS(=O)(=O)c4cccnc4)ccc3OCC)nc12` [Example 12A, 2-[2-Ethoxy-5-(3-pyridylsulphonylamino)phenyl]-8-n-propylpyrido [3,2-d]pyrimidin-4(3H) -one]: the pIC50 was 7.72 in series [1] and 5.34 in series [3]. In series [2], the “SELECTIVITY RATIO” value stood at 242.
On the same counts, the results for `CCOc1ccc(S(=O)(=O)N2CCN(C)CC2)cc1-c1nc2c(C#N)ccnc2c(=O)[nH]1` [Example 24, 8-Cyano-2-[2-ethoxy-5-(4-methyl-1-piperazinyl-sulphonyl)phenyl]pyrido[3,2d]pyrimidin-4(3H)-one] are 7.60, under 4.00 and > 4,000.
